# Data reported in patent US20160113282A1 (HONBU SANKEI CO., LTD., priority 2013, published 2016).
# “And” between values parts separate entries of the source, which are not always exact repeats. Equal entries are not always repeated. Where two headings read alike, the source gives them in different places.
# Key:
# [1] = tested on: Herpes simplex virus type I VR-539; test: Inactivation of herpesviruses, plaque assay on Vero cells; format: cell-based
# [2] = tested on: influenza virus Type A Aichi strain A/Aichi/68 (H3N2); format: cell-based
# [3] = tested on: feline calicivirus F4 strain
# influenza viruses = conditions: pH 6.5 (FIG. 4)
# [4] = tested on: feline calicivirus F4 strain; test: Inactivation of feline caliciviruses (Example 10), plaque assay on CRFK cells; format: cell-based
# [5] = tested on: poliovirus type I live vaccine strain
compound,measurement,setting,value
[Na+].[O-]Cl [(4) sodium hypochlorite aqueous solution],Number of Residual Viruses in Test Solution/Number of Residual Viruses only with Buffer × 100 (%),"[1]; pH 4.5, 200 ppm",below the detectable limit
chlorous acid [Chlorous acid aqueous solution],concentration at which influenza viruses were inactivated to below the detectable limit,[2]; pH 5.5,≤ 100 ppm
same,ratio of the amount of residual infectious viruses,[2]; pH 5.5,0.34
same,infectious viruses decreased to,[2]; pH 6.5,about 1%
same,ratio of the amount of residual infectious viruses,[2]; pH 6.5,0.63
same,concentration at which viruses were inactivated to about the detectable limit,[2]; pH 7.5,200 ppm
same,ratio of the amount of residual infectious viruses,[2]; pH 7.5,1.16
same,virus disinfection effect on influenza viruses,[2]; pH 7.5,significant virus disinfection effect
same,effect on influenza viruses,[2]; pH 8.5,there is an effect even at pH of 8.5
same,ratio of the amount of residual infectious viruses,[2]; pH 8.5,1.31
same,concentration exhibiting a superb sterilizing effect on HSV-I,[1]; pH 4.5-5.5,≥ 100 ppm
same,Number of Residual Viruses in Test Solution/Number of Residual Viruses only with Buffer × 100 (%),"[1]; pH 4.5, 10 ppm",48%
same,Number of Residual Viruses in Test Solution/Number of Residual Viruses only with Buffer × 100 (%),"[1]; pH 4.5, 50 ppm",1.3%
same,Number of Residual Viruses in Test Solution/Number of Residual Viruses only with Buffer × 100 (%),"[1]; pH 4.5, 100 ppm",<0.3%
same,Number of Residual Viruses in Test Solution/Number of Residual Viruses only with Buffer × 100 (%),"[1]; pH 4.5, 100 ppm, listed as chlorous acid aqueous solution",below the detectable limit
same,Number of Residual Viruses in Test Solution/Number of Residual Viruses only with Buffer × 100 (%),"[1]; pH 4.5, 150 ppm",<0.2%
same,Number of Residual Viruses in Test Solution/Number of Residual Viruses only with Buffer × 100 (%),"[1]; pH 4.5, 150 ppm, listed as chlorous acid aqueous solution",below the detectable limit
same,Number of Residual Viruses in Test Solution/Number of Residual Viruses only with Buffer × 100 (%),"[1]; pH 4.5, 200 ppm",<0.4%
same,Number of Residual Viruses in Test Solution/Number of Residual Viruses only with Buffer × 100 (%),"[1]; pH 4.5, 200 ppm, listed as chlorous acid aqueous solution",below the detectable limit
same,Number of Residual Viruses in Test Solution/Number of Residual Viruses only with Buffer × 100 (%),"[1]; pH 5.5, 10 ppm",100%
same,Number of Residual Viruses in Test Solution/Number of Residual Viruses only with Buffer × 100 (%),"[1]; pH 5.5, 50 ppm",12.1%
same,Number of Residual Viruses in Test Solution/Number of Residual Viruses only with Buffer × 100 (%),"[1]; pH 5.5, 100 ppm",10.1%
same,Number of Residual Viruses in Test Solution/Number of Residual Viruses only with Buffer × 100 (%),"[1]; pH 5.5, 150 ppm",<0.2%
same,Number of Residual Viruses in Test Solution/Number of Residual Viruses only with Buffer × 100 (%),"[1]; pH 5.5, 150 ppm, listed as chlorous acid aqueous solution",below the detectable limit
same,Number of Residual Viruses in Test Solution/Number of Residual Viruses only with Buffer × 100 (%),"[1]; pH 5.5, 200 ppm",<0.5%
same,Number of Residual Viruses in Test Solution/Number of Residual Viruses only with Buffer × 100 (%),"[1]; pH 5.5, 200 ppm, listed as chlorous acid aqueous solution",below the detectable limit
same,Number of Residual Viruses in Test Solution/Number of Residual Viruses only with Buffer × 100 (%),"[1]; pH 6.5, 10 ppm",100%
same,Number of Residual Viruses in Test Solution/Number of Residual Viruses only with Buffer × 100 (%),"[1]; pH 6.5, 50 ppm",63.6%
same,Number of Residual Viruses in Test Solution/Number of Residual Viruses only with Buffer × 100 (%),"[1]; pH 6.5, 100 ppm",76.6%
same,Number of Residual Viruses in Test Solution/Number of Residual Viruses only with Buffer × 100 (%),"[1]; pH 6.5, 150 ppm",22.2%
same,Number of Residual Viruses in Test Solution/Number of Residual Viruses only with Buffer × 100 (%),"[1]; pH 6.5, 200 ppm",<0.6%
same,Number of Residual Viruses in Test Solution/Number of Residual Viruses only with Buffer × 100 (%),"[1]; pH 7.5, 10 ppm",100%
same,Number of Residual Viruses in Test Solution/Number of Residual Viruses only with Buffer × 100 (%),"[1]; pH 7.5, 50 ppm",77.4%
same,Number of Residual Viruses in Test Solution/Number of Residual Viruses only with Buffer × 100 (%),"[1]; pH 7.5, 100 ppm",84.7%
same,Number of Residual Viruses in Test Solution/Number of Residual Viruses only with Buffer × 100 (%),"[1]; pH 7.5, 150 ppm",55.8%
same,Number of Residual Viruses in Test Solution/Number of Residual Viruses only with Buffer × 100 (%),"[1]; pH 7.5, 200 ppm",16.8%
same,Number of Residual Viruses in Test Solution/Number of Residual Viruses only with Buffer × 100 (%),"[1]; pH 8.5, 10 ppm",100%
same,Number of Residual Viruses in Test Solution/Number of Residual Viruses only with Buffer × 100 (%),"[1]; pH 8.5, 50 ppm",75.3%
same,Number of Residual Viruses in Test Solution/Number of Residual Viruses only with Buffer × 100 (%),"[1]; pH 8.5, 100 ppm",98.4%
same,Number of Residual Viruses in Test Solution/Number of Residual Viruses only with Buffer × 100 (%),"[1]; pH 8.5, 150 ppm",80%
same,Number of Residual Viruses in Test Solution/Number of Residual Viruses only with Buffer × 100 (%),"[1]; pH 8.5, 200 ppm",30%
same,concentration giving a sufficient effect,[1]; pH of 6.5 or lower (FIG. 2B),≥ 200 ppm
same,concentration giving a sufficient sterilizing effect,[1]; significant at pH of 5.5 or lower (FIG. 2B),≥ 50 ppm
same,concentration with disinfecting capability against feline caliciviruses,[3],400 ppm
same,ratio of the amount of residual infectious viruses,[3],0.38 and 0.66
same,contact needed to completely inactivate influenza viruses,influenza viruses; 5 ppm chlorous acid concentration,one minute or less
same,time after which disinfecting of influenza viruses was almost completed,influenza viruses; 5 ppm upon contact,~30 s
same,active chlorine concentration at which feline caliciviruses were inactivated to below the detectable limit,[4],≥ 200 ppm
same,effect of pH on inactivation of feline caliciviruses,[4],hardly any effect due to pH
same,disinfection of polioviruses,[5],disinfection was only observed at pH of 5.5
same,concentration at which most polioviruses were disinfected,[5]; pH 5.5,500 ppm
sodium chlorite [Sodium chlorite aqueous solution],ratio of the amount of residual infectious viruses,[2]; pH 5.5,1.07
same,residual relative infectivity,[2]; pH 5.5,1/10
same,ratio of the amount of residual infectious viruses,[2]; pH 6.5,1.19
same,ratio of the amount of residual infectious viruses,[2]; pH 7.5,1.09
same,ratio of the amount of residual infectious viruses,[2]; pH 8.5,1.07
same,Number of Residual Viruses in Test Solution/Number of Residual Viruses only with Buffer × 100 (%),"[1]; pH 4.5, 10 ppm",52%
same,Number of Residual Viruses in Test Solution/Number of Residual Viruses only with Buffer × 100 (%),"[1]; pH 4.5, 50 ppm",51.5%
same,Number of Residual Viruses in Test Solution/Number of Residual Viruses only with Buffer × 100 (%),"[1]; pH 4.5, 100 ppm",27.6%
same,Number of Residual Viruses in Test Solution/Number of Residual Viruses only with Buffer × 100 (%),"[1]; pH 4.5, 150 ppm",34.4%
same,Number of Residual Viruses in Test Solution/Number of Residual Viruses only with Buffer × 100 (%),"[1]; pH 4.5, 200 ppm",<0.4%
same,Number of Residual Viruses in Test Solution/Number of Residual Viruses only with Buffer × 100 (%),"[1]; pH 5.5, 10 ppm",100%
same,Number of Residual Viruses in Test Solution/Number of Residual Viruses only with Buffer × 100 (%),"[1]; pH 5.5, 50 ppm",87.3%
same,Number of Residual Viruses in Test Solution/Number of Residual Viruses only with Buffer × 100 (%),"[1]; pH 5.5, 100 ppm",93.2%
same,Number of Residual Viruses in Test Solution/Number of Residual Viruses only with Buffer × 100 (%),"[1]; pH 5.5, 150 ppm",100%
same,Number of Residual Viruses in Test Solution/Number of Residual Viruses only with Buffer × 100 (%),"[1]; pH 5.5, 200 ppm",8.1%
same,Number of Residual Viruses in Test Solution/Number of Residual Viruses only with Buffer × 100 (%),"[1]; pH 6.5, 10 ppm",100%
same,Number of Residual Viruses in Test Solution/Number of Residual Viruses only with Buffer × 100 (%),"[1]; pH 6.5, 50 ppm",83.6%
same,Number of Residual Viruses in Test Solution/Number of Residual Viruses only with Buffer × 100 (%),"[1]; pH 6.5, 100 ppm",87.9%
same,Number of Residual Viruses in Test Solution/Number of Residual Viruses only with Buffer × 100 (%),"[1]; pH 6.5, 150 ppm",100%
same,Number of Residual Viruses in Test Solution/Number of Residual Viruses only with Buffer × 100 (%),"[1]; pH 6.5, 200 ppm",15.3%
same,Number of Residual Viruses in Test Solution/Number of Residual Viruses only with Buffer × 100 (%),"[1]; pH 7.5, 10 ppm",100%
same,Number of Residual Viruses in Test Solution/Number of Residual Viruses only with Buffer × 100 (%),"[1]; pH 7.5, 50 ppm",90.4%
same,Number of Residual Viruses in Test Solution/Number of Residual Viruses only with Buffer × 100 (%),"[1]; pH 7.5, 100 ppm",100%
same,Number of Residual Viruses in Test Solution/Number of Residual Viruses only with Buffer × 100 (%),"[1]; pH 7.5, 150 ppm",100%
same,Number of Residual Viruses in Test Solution/Number of Residual Viruses only with Buffer × 100 (%),"[1]; pH 7.5, 200 ppm",10.4%
same,Number of Residual Viruses in Test Solution/Number of Residual Viruses only with Buffer × 100 (%),"[1]; pH 8.5, 10 ppm",100%
same,Number of Residual Viruses in Test Solution/Number of Residual Viruses only with Buffer × 100 (%),"[1]; pH 8.5, 50 ppm",91.1%
same,Number of Residual Viruses in Test Solution/Number of Residual Viruses only with Buffer × 100 (%),"[1]; pH 8.5, 100 ppm",78.2%
same,Number of Residual Viruses in Test Solution/Number of Residual Viruses only with Buffer × 100 (%),"[1]; pH 8.5, 150 ppm",94%
same,Number of Residual Viruses in Test Solution/Number of Residual Viruses only with Buffer × 100 (%),"[1]; pH 8.5, 200 ppm",7.6%
